Laboratory results from patent US12010997B2, “Systems, methods, and apparatuses for disinfection and decontamination” (priority 2020, dated 2024).

System: Phi6 bacteriophage (surrogate for Coronavirus and Ebola)
Type: cell-based

In the case of `[O][Cl+][O-]` [ClO2, chlorine dioxide], the “log reduction of virions” value is reported as 6 log, the “time in which 6-log reduction was achieved” value is reported as “less than 90 minutes” and the “virions recovered from the coupons treated with ClO2 gas” value is reported as “no virions were recovered”.
